From ChEMBL document CHEMBL4411296, “Design and development of Isatin-triazole hydrazones as potential inhibitors of microtubule affinity-regulating kinase 4 for the therapeutic management of cell proliferation and metastasis” (Eur J Med Chem, 2019)

What was measured:
Format in all cases: functional
[1] = tested on: K562; assay: Growth inhibition of human K562 cells assessed as cell growth at 10 uM after 48 hrs by sulforhodamine B assay relative to control; conditions: K562, 48 h, read-out: Activity
[2] = tested on: MOLT-4; assay: Growth inhibition of human MOLT4 cells assessed as cell growth at 10 uM after 48 hrs by sulforhodamine B assay relative to control; conditions: MOLT-4, 48 h, read-out: Activity
[3] = tested on: HOP-62; assay: Growth inhibition of human HOP62 cells assessed as cell growth at 10 uM after 48 hrs by sulforhodamine B assay relative to control; conditions: HOP-62, 48 h, read-out: Activity
[4] = tested on: NCI-H226; assay: Growth inhibition of human NCI-H226 cells assessed as cell growth at 10 uM after 48 hrs by sulforhodamine B assay relative to control; conditions: NCI-H226, 48 h, read-out: Activity
[5] = tested on: NCI-H23; assay: Growth inhibition of human NCI-H23 cells assessed as cell growth at 10 uM after 48 hrs by sulforhodamine B assay relative to control; conditions: NCI-H23, 48 h, read-out: Activity
[6] = tested on: NCI-H322M; assay: Growth inhibition of human NCI-H322M cells assessed as cell growth at 10 uM after 48 hrs by sulforhodamine B assay relative to control; conditions: read-out: Activity
[7] = tested on: COLO 205; assay: Growth inhibition of human COLO205 cells assessed as cell growth at 10 uM after 48 hrs by sulforhodamine B assay relative to control; conditions: COLO 205, 48 h, read-out: Activity
[8] = tested on: HCT-15; assay: Growth inhibition of human HCT15 cells assessed as cell growth at 10 uM after 48 hrs by sulforhodamine B assay relative to control; conditions: HCT-15, 48 h, read-out: Activity
[9] = tested on: HT-29; assay: Growth inhibition of human HT-29 cells assessed as cell growth at 10 uM after 48 hrs by sulforhodamine B assay relative to control; conditions: HT-29, 48 h, read-out: Activity
[10] = tested on: SW-620; assay: Growth inhibition of human SW620 cells assessed as cell growth at 10 uM after 48 hrs by sulforhodamine B assay relative to control; conditions: SW-620, 48 h, read-out: Activity
[11] = tested on: SF-539; assay: Growth inhibition of human SF539 cells assessed as cell growth at 10 uM after 48 hrs by sulforhodamine B assay relative to control; conditions: SF-539, 48 h, read-out: Activity
[12] = tested on: SNB-19; assay: Growth inhibition of human SNB19 cells assessed as cell growth at 10 uM after 48 hrs by sulforhodamine B assay relative to control; conditions: SNB-19, 48 h, read-out: Activity
[13] = tested on: SNB-75; assay: Growth inhibition of human SNB75 cells assessed as cell growth at 10 uM after 48 hrs by sulforhodamine B assay relative to control; conditions: SNB-75, 48 h, read-out: Activity
[14] = tested on: LOX IMVI; assay: Growth inhibition of human LOXIMVI cells assessed as cell growth at 10 uM after 48 hrs by sulforhodamine B assay relative to control; conditions: read-out: Activity
[15] = tested on: SK-MEL-28; assay: Growth inhibition of human SK-MEL-28 cells assessed as cell growth at 10 uM after 48 hrs by sulforhodamine B assay relative to control; conditions: SK-MEL-28, 48 h, read-out: Activity
[16] = tested on: SK-MEL-5; assay: Growth inhibition of human SK-MEL-5 cells assessed as cell growth at 10 uM after 48 hrs by sulforhodamine B assay relative to control; conditions: SK-MEL-5, 48 h, read-out: Activity
[17] = tested on: UACC-62; assay: Growth inhibition of human UACC62 cells assessed as cell growth at 10 uM after 48 hrs by sulforhodamine B assay relative to control; conditions: UACC-62, 48 h, read-out: Activity
[18] = tested on: OVCAR-3; assay: Growth inhibition of human OVCAR3 cells assessed as cell growth at 10 uM after 48 hrs by sulforhodamine B assay relative to control; conditions: OVCAR-3, 48 h, read-out: Activity
[19] = tested on: OVCAR-5; assay: Growth inhibition of human OVCAR5 cells assessed as cell growth at 10 uM after 48 hrs by sulforhodamine B assay relative to control; conditions: OVCAR-5, 48 h, read-out: Activity
[20] = tested on: SK-OV-3; assay: Growth inhibition of human SKOV3 cells assessed as cell growth at 10 uM after 48 hrs by sulforhodamine B assay relative to control; conditions: SK-OV-3, 48 h, read-out: Activity
[21] = tested on: ACHN; assay: Growth inhibition of human ACHN cells assessed as cell growth at 10 uM after 48 hrs by sulforhodamine B assay relative to control; conditions: read-out: Activity
[22] = tested on: SN12C; assay: Growth inhibition of human SN12C cells assessed as cell growth at 10 uM after 48 hrs by sulforhodamine B assay relative to control; conditions: read-out: Activity
[23] = tested on: MCF7; assay: Growth inhibition of human MCF7 cells assessed as cell growth at 10 uM after 48 hrs by sulforhodamine B assay relative to control; conditions: MCF7, 48 h, read-out: Activity
[24] = tested on: MDA-MB-231; assay: Growth inhibition of human MDA-MB-231 cells assessed as cell growth at 10 uM after 48 hrs by sulforhodamine B assay relative to control; conditions: MDA-MB-231, 48 h, read-out: Activity
[25] = tested on: T47D; assay: Growth inhibition of human T47D cells assessed as cell growth at 10 uM after 48 hrs by sulforhodamine B assay relative to control; conditions: read-out: Activity
[26] = tested on: MDA-MB-468; assay: Growth inhibition of human MDA-MB-468 cells assessed as cell growth at 10 uM after 48 hrs by sulforhodamine B assay relative to control; conditions: MDA-MB-468, 48 h, read-out: Activity

| Compound | growth at 10 µM [1] [%] | growth at 10 µM [2] [%] | growth at 10 µM [3] [%] | growth at 10 µM [4] [%] | growth at 10 µM [5] [%] | growth at 10 µM [6] [%] | growth at 10 µM [7] [%] | growth at 10 µM [8] [%] | growth at 10 µM [9] [%] | growth at 10 µM [10] [%] | growth at 10 µM [11] [%] | growth at 10 µM [12] [%] | growth at 10 µM [13] [%] | growth at 10 µM [14] [%] | growth at 10 µM [15] [%] | growth at 10 µM [16] [%] | growth at 10 µM [17] [%] | growth at 10 µM [18] [%] | growth at 10 µM [19] [%] | growth at 10 µM [20] [%] | further results |
| --- | --- | --- | --- | --- | --- | --- | --- | --- | --- | --- | --- | --- | --- | --- | --- | --- | --- | --- | --- | --- | --- |
| COc1ccc(Cn2cc(C(=O)N/N=C3/C(=O)Nc4ccc(C)cc43)nn2)cc1 | 87.8 | 87.8 | 112 | 93 | 104 | 102 | 107 | 111 | 87.1 | 104 | 103 | 98 | 110 | 102 | 111 | 91.7 | 94.6 | 108 | 105 | 113 | growth at 10 µM [21]: 111%; growth at 10 µM [22]: 98.4%; growth at 10 µM [23]: 89.2%; growth at 10 µM [24]: 110%; growth at 10 µM [25]: 104%; growth at 10 µM [26]: 99.2% |
| COc1ccc(Cn2cc(C(=O)N/N=C3/C(=O)Nc4ccc(F)cc43)nn2)cc1 | 97.2 | 107 | 102 | 98.5 | 99.5 | 102 | 111 | 103 | 91.8 | 103 | 107 | 96.8 | 104 | 102 | 116 | 103 | 88.6 | 112 | 94.7 | 98.9 | growth at 10 µM [21]: 110%; growth at 10 µM [22]: 94.6%; growth at 10 µM [23]: 89.5%; growth at 10 µM [24]: 106%; growth at 10 µM [25]: 85.9%; growth at 10 µM [26]: 87.8% |
| COc1ccc(Cn2cc(C(=O)N/N=C3/C(=O)Nc4ccc(Br)cc43)nn2)cc1 | 88.1 | 80.6 | 111 | 97.5 | 102 | 102 | 115 | 105 | 88.5 | 107 | 104 | 97.3 | 112 | 107 | 116 | 98.3 | 97.2 | 112 | 106 | 108 | growth at 10 µM [21]: 110%; growth at 10 µM [22]: 102%; growth at 10 µM [23]: 86.3%; growth at 10 µM [24]: 108%; growth at 10 µM [25]: 106%; growth at 10 µM [26]: 96.8% |
| COc1ccc(Cn2cc(C(=O)N/N=C3/C(=O)Nc4ccccc43)nn2)cc1 | 90.5 | 93.2 | 104 | 86.8 | 103 | 97.9 | 108 | 105 | 99.2 | 101 | 108 | 98 | 95.3 | 102 | 104 | 102 | 96.7 | 112 | 93 | 113 | growth at 10 µM [21]: 107%; growth at 10 µM [22]: 96.3%; growth at 10 µM [23]: 96.5%; growth at 10 µM [24]: 101%; growth at 10 µM [25]: 113%; growth at 10 µM [26]: 99% |
